In PubChem BioAssay AID1259407 (Chemical Carcinogenesis Research Information System (CCRIS), 2018):
Calls of active or inactive are those of the source. How the calls were made is not given here.

Test system: CCRIS mutagenicity, Ames/micronucleus/aberration tests
Experiment: CCRIS mutagenicity studies

`O=P1(N(CCCl)CCCl)NCCCO1` (stereo not drawn) was tested, and the mutagenic call (End Point: IN VITRO CHROMOSOMAL ABERRATIONS, Test System: CHL/IU CELLS, Metabolic Activation: RAT, LIVER, S-9, PHENOBARBITAL AND 5,6-BENZOFLAVONE) was “active; positive (structural changes)”, the mutagenic call (End Point: IN VITRO CHROMOSOMAL ABERRATIONS, Test System: HUMAN LYMPHOCYTES, Metabolic Activation: RAT LIVER S-9, AROCLOR 1254) was “active; positive” and the mutagenic call (End Point: IN VITRO MICRONUCLEUS, Test System: BOVINE LYMPHOCYTES, Metabolic Activation: S-9 MIX, AROCLOR 1254) was “active; positive”. The mutagenic call (End Point: IN VITRO MICRONUCLEUS, Test System: CHL/IU CELLS, Metabolic Activation: RAT, LIVER, S-9, PHENOBARBITAL AND 5,6-BENZOFLAVONE) was “active; positive”, the mutagenic call (End Point: IN VITRO MICRONUCLEUS, Test System: CHO CELLS, Metabolic Activation: RAT, LIVER, S-9, AROCLOR 1254) was “active; positive” and the mutagenic call (End Point: IN VIVO MICRONUCLEUS, Test System: BLOOD ERYTHROCYTES, Species: MOUSE, Strain/Sex: CD-1/MALE, Route: ORAL) was “active; positive”. The mutagenic call (End Point: IN VIVO MICRONUCLEUS, Test System: BONE MARROW CELLS, Species: MOUSE, Strain/Sex: CD-1/MALE, Route: GAVAGE) was “active; positive”, the mutagenic call (End Point: IN VIVO MICRONUCLEUS, Test System: BONE MARROW ERYTHROCYTES, Species: HAMSTER, Strain/Sex: SYRIAN/MALE, Route: INTRAPERITONEAL) was “active; positive” and the mutagenic call (End Point: IN VIVO MICRONUCLEUS, Test System: BONE MARROW POLYCHROMATIC ERYTHROCYTES, Species: MOUSE, Strain/Sex: SWISS/MALE, Route: IP) was “active; positive”. For the same compound, the mutagenic call (End Point: In vivo chromosomal aberrations, Test System: Bone marrow cells, Species: Rat, Strain/Sex: Wistar/Male, Route: Intraperitoneal injection) was “active; positive (structural changes: gaps, breaks). effect by 100 or 200 mg/kg alpha-li”, the mutagenic call (End Point: In vivo micronucleus, Test System: Bone marrow erythrocytes, Species: Mouse, Strain/Sex: NMRI/Male, Route: Intraperitoneal) was “active; positive (hawthorn extract significantly reduced micronucleated polychromatic er” and the mutagenic call (End Point: In vivo micronucleus, Test System: Bone marrow erythrocytes, Species: Mouse, Strain/Sex: Swiss/Male, Route: Intraperitoneal) was “active; positive (pue or 4-nc showed dose-dependent protective effect against cyclophosp”. For the same compound, the mutagenic call (End Point: In vivo micronucleus, Test System: Micronucleated hepatocytes, Species: Rat, Strain/Sex: F344/Male, Route: Oral) was “inactive; negative”, the mutagenic call (End Point: In vivo micronucleus, Test System: Peripheral blood and bone marrow erythrocytes, Species: Dog, Strain/Sex: Beagle/Male and female, Route: Intravenous) was “active; positive. evaluations by flow cytometry and manual counting; multi-laboratory st” and the mutagenic call (End Point: MICRONUCLEUS, Test System: BONE MARROW, Species: RAT, Strain/Sex: WISTAR, Route: INTRAPERITONEAL) was “active; positive”. The mutagenic call (Test System: AMES SALMONELLA TYPHIMURIUM, Strain/Indicator: TA97, Metabolic Activation: NONE, Method: STANDARD PLATE) was “inactive; negative”, the mutagenic call (Test System: AMES SALMONELLA TYPHIMURIUM, Strain/Indicator: TA97, Metabolic Activation: RAT, LIVER, S-9, PHENOBARBITAL AND ALPHA-NAPHTHOFLAVONE, Method: STANDARD PLATE) was “inactive; negative” and the mutagenic call (Test System: AMES SALMONELLA TYPHIMURIUM, Strain/Indicator: TA98, Metabolic Activation: NONE, Method: PREINCUBATION) was “inactive; negative”. For the same compound, the mutagenic call (Test System: AMES SALMONELLA TYPHIMURIUM, Strain/Indicator: TA98, Metabolic Activation: NONE, Method: SPIRAL ASSAY) was “inactive; negative”, the mutagenic call (Test System: AMES SALMONELLA TYPHIMURIUM, Strain/Indicator: TA98, Metabolic Activation: NONE, Method: STANDARD PLATE) was “inactive; negative” and the mutagenic call (Test System: AMES SALMONELLA TYPHIMURIUM, Strain/Indicator: TA98, Metabolic Activation: RAT, LIVER, S-9, AROCLOR 1254, Method: SPIRAL ASSAY) was “inactive; negative”. The mutagenic call (Test System: AMES SALMONELLA TYPHIMURIUM, Strain/Indicator: TA98, Metabolic Activation: RAT, LIVER, S-9, PHENOBARBITAL AND ALPHA-NAPHTHOFLAVONE, Method: STANDARD PLATE) was “inactive; negative”, the mutagenic call (Test System: AMES SALMONELLA TYPHIMURIUM, Strain/Indicator: TA98, Metabolic Activation: S-9, Method: PREINCUBATION) was “inactive; negative” and the mutagenic call (Test System: AMES SALMONELLA TYPHIMURIUM, Strain/Indicator: TA98, Metabolic Activation: S-9, Method: STANDARD PLATE) was “inactive; negative”. For the same compound, the mutagenic call (Test System: AMES SALMONELLA TYPHIMURIUM, Strain/Indicator: TA100, Metabolic Activation: MOUSE, LIVER, S-9, PHENOBARBITAL AND BETA-NAPHTHOFLAVONE, Method: STANDARD PLATE) was “active; positive”, the mutagenic call (Test System: AMES SALMONELLA TYPHIMURIUM, Strain/Indicator: TA100, Metabolic Activation: MOUSE, LIVER, S-9, PHENOBARBITAL, BETA-NAPHTHOFLAVONE, ISOSAFROLE, ETHANOL, PREGNENOLONE AND 16ALPHA-CARBONITRILE, Method: STANDARD PLATE) was “active; positive” and the mutagenic call (Test System: AMES SALMONELLA TYPHIMURIUM, Strain/Indicator: TA100, Metabolic Activation: NONE, Method: PREINCUBATION) was “inactive; negative”. For the same compound, the mutagenic call (Test System: AMES SALMONELLA TYPHIMURIUM, Strain/Indicator: TA100, Metabolic Activation: NONE, Method: SPIRAL ASSAY) was “active; positive”, the mutagenic call (Test System: AMES SALMONELLA TYPHIMURIUM, Strain/Indicator: TA100, Metabolic Activation: RAT, LIVER, PARENCHYMAL CELLS (CRYOPRESERVED), Method: PREINCUBATION) was “inactive; negative” and the mutagenic call (Test System: AMES SALMONELLA TYPHIMURIUM, Strain/Indicator: TA100, Metabolic Activation: RAT, LIVER, PARENCHYMAL CELLS (FRESHLY ISOLATED OR STORED FOR 1 D), Method: PREINCUBATION) was “active; positive”. The mutagenic call (Test System: AMES SALMONELLA TYPHIMURIUM, Strain/Indicator: TA100, Metabolic Activation: RAT, LIVER, S-9, AROCLOR 1254, Method: SPIRAL ASSAY) was “active; positive”, the mutagenic call (Test System: AMES SALMONELLA TYPHIMURIUM, Strain/Indicator: TA100, Metabolic Activation: RAT, LIVER, S-9, AROCLOR 1254, Method: STANDARD PLATE) was “active; positive” and the mutagenic call (Test System: AMES SALMONELLA TYPHIMURIUM, Strain/Indicator: TA100, Metabolic Activation: RAT, LIVER, S-9, PHENOBARBITAL AND ALPHA-NAPHTHOFLAVONE, Method: STANDARD PLATE) was “active; positive”.
